Here are results for 13 molecules from ChEMBL document CHEMBL5291721, “A preclinical secondary pharmacology resource illuminates target-adverse drug reaction associations of marketed drugs” (Nat Commun, 2023).

Structures are written as SMILES.

One assay addresses T1, Thromboxane A2 receptor (Homo sapiens, UniProt P21731).
T1 sequence (P21731 whole entry): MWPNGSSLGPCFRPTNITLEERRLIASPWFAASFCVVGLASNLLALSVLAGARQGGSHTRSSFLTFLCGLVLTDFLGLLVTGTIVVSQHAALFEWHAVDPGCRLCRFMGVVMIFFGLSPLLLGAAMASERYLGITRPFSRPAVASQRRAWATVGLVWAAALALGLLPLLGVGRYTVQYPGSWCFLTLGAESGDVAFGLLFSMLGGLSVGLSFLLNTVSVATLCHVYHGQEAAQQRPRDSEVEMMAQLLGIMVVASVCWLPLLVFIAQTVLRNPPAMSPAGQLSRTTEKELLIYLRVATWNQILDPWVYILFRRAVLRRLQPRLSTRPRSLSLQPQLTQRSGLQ
The class given is functional, cell-based.

Assay [1] addresses 3',5'-cyclic-AMP phosphodiesterase 4A (Homo sapiens, UniProt P27815). The format is functional.
Assay [2] deals with T2, Alpha-1A adrenergic receptor (Homo sapiens, UniProt P35348).
T2 sequence (P35348 whole entry): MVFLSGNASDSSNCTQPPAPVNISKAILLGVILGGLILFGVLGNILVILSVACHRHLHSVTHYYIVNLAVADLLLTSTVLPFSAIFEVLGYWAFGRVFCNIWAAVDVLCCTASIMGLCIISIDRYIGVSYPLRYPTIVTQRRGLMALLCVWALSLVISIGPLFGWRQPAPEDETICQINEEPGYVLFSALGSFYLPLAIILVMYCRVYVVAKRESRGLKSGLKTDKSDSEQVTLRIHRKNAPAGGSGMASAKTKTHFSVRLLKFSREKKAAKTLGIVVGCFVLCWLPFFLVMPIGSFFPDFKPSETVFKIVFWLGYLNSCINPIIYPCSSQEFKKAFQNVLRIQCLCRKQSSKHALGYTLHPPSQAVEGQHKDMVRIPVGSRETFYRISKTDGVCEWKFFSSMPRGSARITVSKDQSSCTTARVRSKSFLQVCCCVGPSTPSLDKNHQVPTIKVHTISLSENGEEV
The format is functional, cell-based.

The target in assay [3] is T3, Muscarinic acetylcholine receptor M2 (Homo sapiens, UniProt P08172).
T3 sequence (P08172 whole entry): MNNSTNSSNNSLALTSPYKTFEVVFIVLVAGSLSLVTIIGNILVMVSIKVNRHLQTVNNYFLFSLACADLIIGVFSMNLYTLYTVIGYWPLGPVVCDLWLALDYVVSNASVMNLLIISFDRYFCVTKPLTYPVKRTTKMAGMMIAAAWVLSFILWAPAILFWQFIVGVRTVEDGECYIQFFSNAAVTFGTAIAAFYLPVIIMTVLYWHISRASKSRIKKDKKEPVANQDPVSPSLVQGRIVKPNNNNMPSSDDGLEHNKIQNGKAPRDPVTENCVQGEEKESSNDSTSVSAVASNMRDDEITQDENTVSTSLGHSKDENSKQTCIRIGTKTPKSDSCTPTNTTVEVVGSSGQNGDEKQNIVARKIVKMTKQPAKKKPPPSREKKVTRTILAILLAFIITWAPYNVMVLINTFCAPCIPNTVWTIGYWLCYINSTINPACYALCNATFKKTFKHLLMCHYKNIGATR

In assay [4] the target is Voltage-gated inwardly rectifying potassium channel KCNH2 (Homo sapiens, UniProt Q12809). The format is functional. The conditions noted are these: read-out: AC50.
Assay [5] deals with T4, Muscarinic acetylcholine receptor M1 (Homo sapiens, UniProt P11229).
T4 sequence (P11229 whole entry): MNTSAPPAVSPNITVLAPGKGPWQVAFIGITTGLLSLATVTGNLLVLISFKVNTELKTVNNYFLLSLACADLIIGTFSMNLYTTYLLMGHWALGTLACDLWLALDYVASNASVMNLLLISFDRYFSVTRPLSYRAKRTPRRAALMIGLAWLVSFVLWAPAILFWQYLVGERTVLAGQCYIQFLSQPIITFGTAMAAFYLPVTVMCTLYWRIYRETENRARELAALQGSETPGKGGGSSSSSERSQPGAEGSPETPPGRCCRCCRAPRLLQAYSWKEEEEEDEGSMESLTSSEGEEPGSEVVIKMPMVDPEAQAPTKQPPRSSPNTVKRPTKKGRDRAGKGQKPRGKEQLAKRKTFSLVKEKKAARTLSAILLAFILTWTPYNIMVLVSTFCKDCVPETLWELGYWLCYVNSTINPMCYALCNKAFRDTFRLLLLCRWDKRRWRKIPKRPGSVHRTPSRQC
The class given is functional, cell-based.

Assay [6] deals with Sodium-dependent dopamine transporter (Homo sapiens, UniProt Q01959).
Another assay deals with D(3) dopamine receptor (Homo sapiens, UniProt P35462).
The target of a further assay is Prothrombin (Homo sapiens, UniProt P00734). The class given is functional.
Assay [7] deals with T5, Alpha-2A adrenergic receptor (Homo sapiens, UniProt P08913).
T5 sequence (P08913 whole entry): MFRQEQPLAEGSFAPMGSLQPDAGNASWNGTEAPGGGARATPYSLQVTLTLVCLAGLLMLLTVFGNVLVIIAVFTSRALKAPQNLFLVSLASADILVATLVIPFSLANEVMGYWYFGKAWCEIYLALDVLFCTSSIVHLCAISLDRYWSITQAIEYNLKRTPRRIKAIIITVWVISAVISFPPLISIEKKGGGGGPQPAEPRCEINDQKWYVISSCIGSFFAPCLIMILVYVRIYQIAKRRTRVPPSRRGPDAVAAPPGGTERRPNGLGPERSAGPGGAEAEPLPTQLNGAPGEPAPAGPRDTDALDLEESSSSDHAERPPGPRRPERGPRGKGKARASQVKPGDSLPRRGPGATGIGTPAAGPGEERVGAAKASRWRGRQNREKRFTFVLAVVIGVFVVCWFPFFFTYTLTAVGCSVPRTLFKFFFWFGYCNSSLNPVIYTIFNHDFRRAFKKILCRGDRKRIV

What is called AC50 is the concentration giving half of the maximal activity seen.
Further: assay procedure not described here.

Chain of 3',5'-cyclic-AMP phosphodiesterase 4A (P27815 whole entry): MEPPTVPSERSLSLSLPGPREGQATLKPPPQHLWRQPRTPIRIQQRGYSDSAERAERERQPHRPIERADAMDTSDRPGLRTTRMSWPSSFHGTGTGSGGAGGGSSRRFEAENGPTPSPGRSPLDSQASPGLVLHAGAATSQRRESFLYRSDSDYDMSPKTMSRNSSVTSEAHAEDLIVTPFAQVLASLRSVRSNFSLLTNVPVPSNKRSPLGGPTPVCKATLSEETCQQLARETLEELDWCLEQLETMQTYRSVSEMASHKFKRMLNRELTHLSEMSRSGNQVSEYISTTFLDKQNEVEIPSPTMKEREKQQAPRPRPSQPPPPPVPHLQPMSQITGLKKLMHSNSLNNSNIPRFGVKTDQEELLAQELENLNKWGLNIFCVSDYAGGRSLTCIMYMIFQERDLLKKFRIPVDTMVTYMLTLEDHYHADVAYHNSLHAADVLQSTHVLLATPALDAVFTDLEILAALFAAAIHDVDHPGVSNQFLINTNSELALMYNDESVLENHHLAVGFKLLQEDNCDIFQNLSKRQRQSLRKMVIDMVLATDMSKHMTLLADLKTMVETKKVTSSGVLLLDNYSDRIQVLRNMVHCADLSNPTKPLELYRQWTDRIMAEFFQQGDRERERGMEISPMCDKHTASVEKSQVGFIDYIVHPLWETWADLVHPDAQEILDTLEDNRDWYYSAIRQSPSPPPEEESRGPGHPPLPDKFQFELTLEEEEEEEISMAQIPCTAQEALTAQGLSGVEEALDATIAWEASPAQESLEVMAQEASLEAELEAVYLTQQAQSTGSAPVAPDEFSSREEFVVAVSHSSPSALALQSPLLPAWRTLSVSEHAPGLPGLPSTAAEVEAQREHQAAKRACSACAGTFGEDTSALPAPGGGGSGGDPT
Chain of D(3) dopamine receptor (P35462 whole entry): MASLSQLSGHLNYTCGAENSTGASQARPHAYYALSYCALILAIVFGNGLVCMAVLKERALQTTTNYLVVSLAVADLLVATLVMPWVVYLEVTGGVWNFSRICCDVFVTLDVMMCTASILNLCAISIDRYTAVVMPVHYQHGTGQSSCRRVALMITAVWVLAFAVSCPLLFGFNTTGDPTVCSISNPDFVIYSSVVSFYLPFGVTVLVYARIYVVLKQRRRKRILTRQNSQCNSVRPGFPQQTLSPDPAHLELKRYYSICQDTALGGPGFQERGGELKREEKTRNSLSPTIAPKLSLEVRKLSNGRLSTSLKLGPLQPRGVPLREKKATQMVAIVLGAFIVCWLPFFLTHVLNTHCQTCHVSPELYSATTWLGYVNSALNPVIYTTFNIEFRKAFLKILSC
Chain of Sodium-dependent dopamine transporter (Q01959 whole entry): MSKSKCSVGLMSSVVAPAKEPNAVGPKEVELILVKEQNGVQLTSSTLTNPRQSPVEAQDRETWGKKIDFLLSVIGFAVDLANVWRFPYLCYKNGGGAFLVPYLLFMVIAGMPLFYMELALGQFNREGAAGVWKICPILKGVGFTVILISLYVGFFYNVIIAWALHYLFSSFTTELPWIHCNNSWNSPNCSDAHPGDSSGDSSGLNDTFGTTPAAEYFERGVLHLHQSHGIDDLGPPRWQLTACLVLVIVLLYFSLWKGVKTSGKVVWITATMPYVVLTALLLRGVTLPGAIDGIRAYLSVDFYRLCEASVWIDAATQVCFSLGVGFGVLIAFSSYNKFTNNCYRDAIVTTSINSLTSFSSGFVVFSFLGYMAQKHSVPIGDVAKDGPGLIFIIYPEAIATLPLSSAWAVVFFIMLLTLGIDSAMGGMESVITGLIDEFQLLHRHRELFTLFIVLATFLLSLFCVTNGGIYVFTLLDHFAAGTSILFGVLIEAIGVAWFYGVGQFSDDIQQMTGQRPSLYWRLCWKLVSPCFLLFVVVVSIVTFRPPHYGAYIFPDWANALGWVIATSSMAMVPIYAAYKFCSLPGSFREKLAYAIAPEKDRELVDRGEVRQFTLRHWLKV
Chain of Voltage-gated inwardly rectifying potassium channel KCNH2 (Q12809 whole entry): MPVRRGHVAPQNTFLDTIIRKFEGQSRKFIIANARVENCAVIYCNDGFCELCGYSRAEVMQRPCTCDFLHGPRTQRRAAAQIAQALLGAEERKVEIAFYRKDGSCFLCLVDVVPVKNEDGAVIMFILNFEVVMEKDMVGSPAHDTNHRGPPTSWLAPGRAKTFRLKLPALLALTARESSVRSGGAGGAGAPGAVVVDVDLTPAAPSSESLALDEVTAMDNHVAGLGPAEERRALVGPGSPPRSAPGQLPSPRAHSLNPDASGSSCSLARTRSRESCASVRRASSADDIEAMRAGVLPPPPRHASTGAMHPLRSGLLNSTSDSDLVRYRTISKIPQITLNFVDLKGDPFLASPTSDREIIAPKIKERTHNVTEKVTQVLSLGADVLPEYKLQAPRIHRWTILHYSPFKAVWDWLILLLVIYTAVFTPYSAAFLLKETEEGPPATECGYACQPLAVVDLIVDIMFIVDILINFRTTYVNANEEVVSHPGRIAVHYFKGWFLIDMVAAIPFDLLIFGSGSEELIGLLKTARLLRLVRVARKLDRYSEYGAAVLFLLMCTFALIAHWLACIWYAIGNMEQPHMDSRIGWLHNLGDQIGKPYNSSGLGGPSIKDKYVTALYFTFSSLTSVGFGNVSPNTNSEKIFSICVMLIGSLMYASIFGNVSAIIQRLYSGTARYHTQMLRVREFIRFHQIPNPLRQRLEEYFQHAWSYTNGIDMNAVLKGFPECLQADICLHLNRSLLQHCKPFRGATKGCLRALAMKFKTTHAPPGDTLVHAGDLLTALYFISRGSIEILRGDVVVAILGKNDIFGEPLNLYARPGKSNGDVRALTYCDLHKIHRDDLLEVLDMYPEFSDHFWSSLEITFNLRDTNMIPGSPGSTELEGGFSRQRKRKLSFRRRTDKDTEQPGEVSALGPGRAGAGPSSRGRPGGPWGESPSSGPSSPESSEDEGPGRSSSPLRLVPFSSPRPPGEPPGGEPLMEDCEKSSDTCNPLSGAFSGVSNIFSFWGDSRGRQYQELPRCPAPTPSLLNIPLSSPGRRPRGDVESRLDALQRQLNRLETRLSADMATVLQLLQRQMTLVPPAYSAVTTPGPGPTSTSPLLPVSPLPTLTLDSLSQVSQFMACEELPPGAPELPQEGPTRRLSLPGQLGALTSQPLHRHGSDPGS

`CCCCOC(=O)C(=O)[C@H]1[C@H](C)C[C@H]2[C@@H]3C[C@H](F)C4=CC(=O)C=C[C@]4(C)[C@H]3[C@@H](O)C[C@@]21C` [FLUOCORTIN BUTYL]: the AC50 is greater than 30 µM on Thromboxane A2 receptor; greater than 30 µM in assay [1]; 13.1 µM in [2]; greater than 30 µM in assay [3]; 16 µM in [4]; greater than 30 µM in [5]. Besides, the AC50 in assay [6] is 27.2 µM; at D(3) dopamine receptor, greater than 30 µM; on Prothrombin, greater than 30 µM; in assay [7] it was greater than 30 µM.
For `N[C@H]1C(O)O[C@H](CO)[C@@H](O)[C@@H]1O` (stereo not given in full) [GLUCOSAMINE], the AC50 (at Thromboxane A2 receptor; in [1]; in [2]; in [3]; in [4]; in assay [5]) was greater than 30 µM each time. In addition, the AC50 (in [6]; on D(3) dopamine receptor; at Prothrombin; in [7]) was greater than 30 µM in each case.
Take `CCN(CC)CCNc1ccc(CO)c2sc3ccccc3c(=O)c12` [HYCANTHONE]: the AC50 is greater than 30 µM on Thromboxane A2 receptor; greater than 30 µM in assay [1]; 1.4 µM in assay [2]; 4.47 µM in [3]; 3.6 µM in [4]; greater than 30 µM in [5]. The AC50 in [6] is 12.5 µM; at D(3) dopamine receptor it was 19.5 µM; at Prothrombin it was greater than 30 µM; in assay [7] it was 1.73 µM.
As to `CC[C@H]1CN2CC[C@H]1C[C@H]2[C@H](O)c1ccnc2ccc(OC)cc12` [HYDROQUININE], the AC50 on Thromboxane A2 receptor is greater than 30 µM; in assay [1] it was greater than 30 µM; in assay [2], greater than 30 µM; in assay [3], 23.4 µM; in assay [4] it was 10 µM; in [5] it was greater than 30 µM. For the same molecule, the AC50 was 29.1 µM in assay [6], greater than 30 µM at D(3) dopamine receptor, greater than 30 µM at Prothrombin and 3.59 µM in [7].
Regarding `O=[N+]([O-])O[C@@H]1CO[C@H]2[C@@H]1OC[C@@H]2O` [ISOSORBIDE MONONITRATE], the AC50 (on Thromboxane A2 receptor; in assay [1]; in assay [2]; in assay [3]; in [4]; in [5]) was greater than 30 µM throughout. For the same molecule, the AC50 (in assay [6]; at D(3) dopamine receptor; at Prothrombin; in assay [7]) was greater than 30 µM in each case.
Take `Cc1ccccc1OCC(O)CO` (stereo not given) [MEPHENESIN]: the AC50 (at Thromboxane A2 receptor; in [1]; in [2]; in assay [3]; in assay [4]; in [5]) was greater than 30 µM in each case. The AC50 (in assay [6]; on D(3) dopamine receptor; at Prothrombin; in assay [7]) was greater than 30 µM in each case.
Regarding `C[N+]1(CCCCC[N+]2(C)CCCC2)CCCC1` [PENTOLINIUM], the AC50 (on Thromboxane A2 receptor; in assay [1]; in assay [2]; in assay [3]; in assay [4]; in [5]) was greater than 30 µM each time. The AC50 (in [6]; on D(3) dopamine receptor; at Prothrombin; in assay [7]) was greater than 30 µM in each case.
Turning to `O=C(O)c1ccccc1C(=O)Nc1ccc(S(=O)(=O)Nc2nccs2)cc1` [PHTHALYLSULFATHIAZOLE], the AC50 (on Thromboxane A2 receptor; in assay [1]; in assay [2]; in assay [3]; in [4]; in assay [5]) was greater than 30 µM throughout. For the same molecule, the AC50 (in assay [6]; on D(3) dopamine receptor; at Prothrombin; in assay [7]) was greater than 30 µM throughout.
As to `CC(C)(C)C(=O)OCOC(=O)[C@@H]1N2C(=O)[C@@H](NC(=O)[C@H](N)c3ccccc3)[C@H]2SC1(C)C` [PIVAMPICILLIN], the AC50 (at Thromboxane A2 receptor; in assay [1]; in [2]; in [3]; in assay [4]; in assay [5]) was greater than 30 µM each time. Also, the AC50 (in assay [6]; at D(3) dopamine receptor; at Prothrombin; in [7]) was greater than 30 µM throughout.
For `O=C(Oc1ccc2c(c1)CCCN2C(=O)C(Cl)Cl)c1ccco1` [QUINFAMIDE], the AC50 on Thromboxane A2 receptor is greater than 30 µM; in assay [1] it was greater than 30 µM; in assay [2], 24.6 µM; in assay [3], greater than 30 µM; in assay [4] it was greater than 30 µM; in assay [5], greater than 30 µM. The AC50 (in [6]; on D(3) dopamine receptor; at Prothrombin; in [7]) was greater than 30 µM throughout.
In the case of `CC(C)COC(=O)OCN1C(=O)CN(CCN2CC(=O)N(COC(=O)OCC(C)C)C(=O)C2)CC1=O` [SOBUZOXANE], the AC50 (at Thromboxane A2 receptor; in assay [1]; in assay [2]; in assay [3]; in [4]; in assay [5]) was greater than 30 µM each time. For the same molecule, the AC50 (in [6]; at D(3) dopamine receptor; at Prothrombin; in assay [7]) was greater than 30 µM in each case.
As to `Cc1cc(NS(=O)(=O)c2ccc(N)cc2)nc(C)n1` [SULFISOMIDINE], the AC50 on Thromboxane A2 receptor was greater than 30 µM; in assay [1] it was 3.58 µM; in assay [2], greater than 30 µM; in [3] it was greater than 30 µM; in assay [4] it was greater than 30 µM; in assay [5], greater than 30 µM. Besides, the AC50 (in [6]; on D(3) dopamine receptor; at Prothrombin; in assay [7]) was greater than 30 µM throughout.
On to `OB1OCc2cc(F)ccc21` [TAVABOROLE], for which the AC50 (at Thromboxane A2 receptor; in assay [1]; in [2]; in assay [3]; in assay [4]; in [5]) was greater than 30 µM each time. Moreover, the AC50 (in [6]; on D(3) dopamine receptor; at Prothrombin; in assay [7]) was greater than 30 µM each time.
